Consider two molecules from US10316057B2, “Tandem facial amphiphiles” (WISCONSIN ALUMNI RESEARCH FOUNDATION, priority 2011, dated 2019).

The subject of this experiment is leucine transporter (LeuT WT). Briefly: LeuT functionality assay ([3H]-Leu binding by scintillation proximity assay). The settings on record: room temperature. More on the design: species or system Aquifex aeolicus. From the text:
The wild type of bacterial leucine transporter (LeuT WT) was examined because the functional state of this membrane protein is readily assessed by using a scintillation proximity assay (SPA) (Quick et al., Proc. Natl. Acad. Sci. USA 2007, 104, 3603-3608) to monitor binding of radiolabelled leucine. LeuT was initially extracted with DDM and then diluted with amphiphile-containing solutions to generate final TFA concentrations of 0.04 wt % or 0.2 wt % (residual DDM=0.005 wt %). Control samples had 0.05 wt % or 0.2 wt % DDM (overall, the final concentrations were CMC+0.04 wt % or CMC+0.2 wt %).
The wild type of the leucine transporter (LeuT WT) from Aquifex aeolicus was expressed in Escherichia coli essentially as described by Deckert et al. (Nature 392, 353-358 (1998)). The pET16b-LeuT WT-8His plasmid was kindly provided by Dr. Eric Gouaux, Vollum Institute, Portland Oreg. LeuT WT was extracted from isolated bacterial membranes solubilized with 1% DDM, bound to Ni^2+-affinity Chelating Sepharose Fast Flow resin (GE Healthcare, USA), and eluted in buffer consisted of 20 mM Tris-HCl (pH 8.0), 1 mM NaCl, 199 mM KCl, 0.05% DDM and 300 mM imidazole. […] After incubation at room temperature, at the indicated time points, samples were centrifuged and the protein concentration was determined by absorbance measurements at 280 nm. Concomitantly, [^3H]-Leu binding was determined using scintillation proximity assay (SPA) (Quick and Javitch, Proc. Natl. Acad. Sci. USA 104, 3603-3608 (2007)), with the reaction mixture consisted of 5 μL from the respective samples, 33.3 nM [^3H]-Leu (PerkinElmer, USA) and copper chelate (His-Tag) YSi beads (GE Healthcare). […] Normalized results are expressed as mean±SEM (n=2), as illustrated in FIG. 11 (long-term solubility of LeuT WT incubated in the presence of TFA-1, TFA-3, and DDM at (a) CMC+0.04 wt % or (b) CMC+0.2 wt % at room temperature).
(In a scintillation proximity assay essentially only radioactivity close to the scintillant gives light.)

Counter-ions that a name gives are not always drawn.

Regarding `CCCCCCCCCCCCO[C@@H]1O[C@H](CO)[C@@H](O[C@H]2O[C@H](CO)[C@@H](O)[C@H](O)[C@H]2O)[C@H](O)[C@H]1O` [DDM, dodecyl-β-D-maltoside, reference compound], the “maintaining LeuT WT function over 12 days” value (lower amphiphile concentration, CMC+0.04 wt %) is “slightly better than the TFAs”.

As for `C[C@H](CCC(=O)N(C)CCCN(C)C(=O)CC[C@@H](C)[C@H]1CC[C@H]2[C@@H]3CC[C@@H]4C[C@H](O[C@@H]5O[C@H](CO)[C@@H](O[C@H]6O[C@H](CO)[C@@H](O)[C@H](O)[C@H]6O)[C@H](O)[C@H]5O)CC[C@]4(C)[C@H]3C[C@H](O[C@@H]3O[C@H](CO)[C@@H](O[C@H]4O[C@H](CO)[C@@H](O)[C@H](O)[C@H]4O)[C@H](O)[C@H]3O)[C@]12C)[C@H]1CC[C@H]2[C@@H]3CC[C@@H]4C[C@H](O[C@@H]5O[C@H](CO)[C@@H](O[C@H]6O[C@H](CO)[C@@H](O)[C@H](O)[C@H]6O)[C@H](O)[C@H]5O)CC[C@]4(C)[C@H]3C[C@H](O[C@@H]3O[C@H](CO)[C@@H](O[C@H]4O[C@H](CO)[C@@H](O)[C@H](O)[C@H]4O)[C@H](O)[C@H]3O)[C@]12C` [TFA-1], the “maintaining LeuT WT function over 12 days” value (higher amphiphile concentration, CMC+0.2 wt %) was “matched DDM at the lower concentration”.
